# In patent US7960130B2, “Method for activation of transient receptor potential cation channel, subfamily A, member 1 using acetaldehyde” (Korea University Industry and Academy Cooperation Foundation, priority 2008, dated 2011):
# Entries after “also recorded” stand apart in the source; their conditions may differ.
# Assays:
# hTRPA1 = biological target: T1, hTRPA1 (Homo sapiens, UniProt O75762); assay: Fluo-3 calcium imaging of hTRPA1-transfected HEK293T cells; assay type: cell-based
# T1 construct: expressed in transfected cells; host or cells: HEK293T (ATCC CRL-11268), pcDNA3.1
# T1 sequence (O75762 whole entry): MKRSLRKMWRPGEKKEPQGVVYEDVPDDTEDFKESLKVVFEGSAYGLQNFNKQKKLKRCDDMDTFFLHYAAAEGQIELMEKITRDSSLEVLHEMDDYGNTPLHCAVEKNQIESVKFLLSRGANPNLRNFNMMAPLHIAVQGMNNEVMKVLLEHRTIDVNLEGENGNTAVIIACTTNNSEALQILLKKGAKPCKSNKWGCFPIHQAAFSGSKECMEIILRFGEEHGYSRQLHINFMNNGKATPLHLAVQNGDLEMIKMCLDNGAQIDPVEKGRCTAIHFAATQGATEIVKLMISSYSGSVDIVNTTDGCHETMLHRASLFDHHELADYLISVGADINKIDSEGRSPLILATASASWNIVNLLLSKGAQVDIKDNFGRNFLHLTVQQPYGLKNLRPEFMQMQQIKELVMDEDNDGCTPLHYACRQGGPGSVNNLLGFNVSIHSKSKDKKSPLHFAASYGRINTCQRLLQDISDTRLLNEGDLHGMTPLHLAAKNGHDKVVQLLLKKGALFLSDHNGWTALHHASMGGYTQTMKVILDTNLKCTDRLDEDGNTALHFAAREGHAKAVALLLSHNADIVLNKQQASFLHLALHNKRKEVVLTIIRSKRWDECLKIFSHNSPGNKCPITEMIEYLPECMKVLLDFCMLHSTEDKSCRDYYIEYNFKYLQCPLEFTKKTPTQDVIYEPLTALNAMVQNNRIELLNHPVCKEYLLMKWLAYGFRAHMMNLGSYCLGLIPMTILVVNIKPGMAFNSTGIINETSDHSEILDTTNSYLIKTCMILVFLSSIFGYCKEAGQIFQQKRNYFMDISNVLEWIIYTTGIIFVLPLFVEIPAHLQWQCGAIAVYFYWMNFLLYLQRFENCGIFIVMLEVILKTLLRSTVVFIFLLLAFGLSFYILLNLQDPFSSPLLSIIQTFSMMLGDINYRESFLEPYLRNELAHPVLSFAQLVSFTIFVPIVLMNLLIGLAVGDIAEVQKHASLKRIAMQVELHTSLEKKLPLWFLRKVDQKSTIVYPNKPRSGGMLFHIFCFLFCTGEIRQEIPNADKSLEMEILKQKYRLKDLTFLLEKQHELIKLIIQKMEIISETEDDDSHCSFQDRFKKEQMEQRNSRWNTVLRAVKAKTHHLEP
# Procedure: (§1) Particularly, the HEK293T cell line was transiently transfected with individual TRP channel plasmid (pcDNA3.1 containing polynucleotide encoding hTRPA1, rTRPV2, rTRPV1 or mTRPV4; pcDNA5/FRT containing polynucleotide encoding mTRPA1, hTRPV3 or mTRPM8) 3 μg per 35-mm dish and 600 ng/well of pcDNA3 (Invitrogen Corp., USA; containing green fluorescent protein (GFP) cDNA) using Fugene6 (Roche Diagnostics, USA) according to manufacturer's instruction. The transformed cells were cultured in DMEM/F12 containing 10% FBS and 1% penicillin/streptomycin in a CO2 incubator for 24 hours. The cells were replated onto poly-L-lysine-coated glass coverslips, followed by further culture for 10-24 hours.
# (§2) Stock solutions were made using water or ethanol, and were diluted with test solutions before use.
# (§3) Calcium imaging was performed with a confocal microscope (LSM5 Pascal, Carl Zeiss, Germany), and time-lapse images (488 nm excitation/514 nm emission) were collected every 3 seconds using Carl Zeiss ratio tool software (Carl Zeiss, Germany).
# as §2
# mTRPA1 = biological target: T2, mTRPA1 (Mus musculus, UniProt Q8BLA8); assay: Fluo-3 calcium imaging of mTRPA1-transfected HEK293T cells; assay type: cell-based
# T2 construct: expressed in transfected cells; host or cells: HEK293T (ATCC CRL-11268), pcDNA5/FRT
# T2 sequence (Q8BLA8 whole entry): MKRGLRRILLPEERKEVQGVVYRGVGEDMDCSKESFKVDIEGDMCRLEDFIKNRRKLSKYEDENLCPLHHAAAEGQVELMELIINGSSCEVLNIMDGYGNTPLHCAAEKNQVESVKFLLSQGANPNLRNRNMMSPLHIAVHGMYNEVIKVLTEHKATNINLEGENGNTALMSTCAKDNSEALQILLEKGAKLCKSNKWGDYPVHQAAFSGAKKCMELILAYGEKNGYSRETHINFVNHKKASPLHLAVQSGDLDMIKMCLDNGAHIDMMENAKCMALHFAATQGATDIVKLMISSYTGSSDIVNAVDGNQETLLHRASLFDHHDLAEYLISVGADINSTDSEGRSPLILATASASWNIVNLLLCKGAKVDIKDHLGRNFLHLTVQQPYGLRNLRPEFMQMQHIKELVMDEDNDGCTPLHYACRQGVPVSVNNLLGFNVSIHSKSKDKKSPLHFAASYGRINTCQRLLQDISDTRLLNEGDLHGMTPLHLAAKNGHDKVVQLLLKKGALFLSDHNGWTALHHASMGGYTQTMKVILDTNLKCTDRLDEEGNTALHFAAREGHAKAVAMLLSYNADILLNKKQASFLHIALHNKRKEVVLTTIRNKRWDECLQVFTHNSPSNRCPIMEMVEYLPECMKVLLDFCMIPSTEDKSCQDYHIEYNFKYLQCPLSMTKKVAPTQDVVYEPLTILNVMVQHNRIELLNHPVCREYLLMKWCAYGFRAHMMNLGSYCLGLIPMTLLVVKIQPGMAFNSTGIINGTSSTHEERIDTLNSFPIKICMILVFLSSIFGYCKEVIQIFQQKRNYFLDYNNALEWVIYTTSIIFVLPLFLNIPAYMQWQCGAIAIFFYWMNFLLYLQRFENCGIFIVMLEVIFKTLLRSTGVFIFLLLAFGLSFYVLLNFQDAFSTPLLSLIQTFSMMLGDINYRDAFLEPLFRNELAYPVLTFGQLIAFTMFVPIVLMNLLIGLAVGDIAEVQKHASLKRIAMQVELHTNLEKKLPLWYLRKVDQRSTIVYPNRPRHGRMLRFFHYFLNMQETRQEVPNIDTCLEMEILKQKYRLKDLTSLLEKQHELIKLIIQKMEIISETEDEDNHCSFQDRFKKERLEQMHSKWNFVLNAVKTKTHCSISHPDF
# Procedure: as §1, §3, §2
# TRPA1 = assay: Whole-cell voltage-clamp recording of TRPA1 transfected cell line; assay type: cell-based; conditions: 1 mM acetaldehyde, 300 μM cinnamaldehyde, voltage ramp -80 to +80 mV, n=5
# Procedure: as §1, §2
# This experiment was repeated 5 times.
# TRPV1 = biological target: T3, TRPV1 (Rattus norvegicus, UniProt O35433); assay: Calcium imaging of TRP transfected cell lines treated with acetaldehyde (TRPV1); assay type: cell-based; conditions: 1 mM acetaldehyde
# T3 construct: expressed in transfected cells; host or cells: HEK293T (ATCC CRL-11268), pcDNA3.1
# T3 sequence (O35433 whole entry): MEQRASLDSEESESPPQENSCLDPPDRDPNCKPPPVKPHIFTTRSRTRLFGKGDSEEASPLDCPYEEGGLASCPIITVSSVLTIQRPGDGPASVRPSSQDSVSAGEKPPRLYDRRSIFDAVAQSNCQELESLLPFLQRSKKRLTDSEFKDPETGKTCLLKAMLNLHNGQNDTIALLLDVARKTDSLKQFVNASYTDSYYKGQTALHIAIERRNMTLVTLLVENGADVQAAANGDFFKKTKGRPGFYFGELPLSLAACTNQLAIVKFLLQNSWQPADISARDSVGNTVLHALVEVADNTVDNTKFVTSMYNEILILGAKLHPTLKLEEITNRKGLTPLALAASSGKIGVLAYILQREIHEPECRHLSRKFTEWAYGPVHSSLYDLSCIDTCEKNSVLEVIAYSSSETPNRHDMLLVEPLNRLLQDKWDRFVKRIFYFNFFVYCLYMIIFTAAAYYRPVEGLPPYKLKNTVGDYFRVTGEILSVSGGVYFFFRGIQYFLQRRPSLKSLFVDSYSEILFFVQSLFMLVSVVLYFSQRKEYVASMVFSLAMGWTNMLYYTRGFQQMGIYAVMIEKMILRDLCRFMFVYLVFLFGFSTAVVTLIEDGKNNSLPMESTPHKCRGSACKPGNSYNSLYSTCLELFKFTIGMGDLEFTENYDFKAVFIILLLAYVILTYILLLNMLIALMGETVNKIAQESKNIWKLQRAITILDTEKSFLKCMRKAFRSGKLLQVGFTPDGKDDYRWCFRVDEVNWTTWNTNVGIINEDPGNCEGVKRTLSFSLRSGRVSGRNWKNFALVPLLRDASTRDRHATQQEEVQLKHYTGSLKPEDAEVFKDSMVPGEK
# From the text: HEK293T cell line (ATCC CRL-11268) was transiently transfected with plasmid DNA containing polynucleotide encoding hTRPA1 (SEQ. ID. NO: 1), rTRPV2 (SEQ. ID. NO: 2), rTRPV1 (SEQ. ID. NO: 3), mTRPV4 (SEQ. ID. NO: 4), mTRPA1 (SEQ. ID. NO: 5), hTRPV3 (SEQ. ID. NO: 6) or mTRPM8 (SEQ. ID. NO: 7).
# as §1
# Particularly, the transfected cell line of Example <4-1> was loaded with Fluo-3AM (5 μM; Sigma Aldrich, USA) in the bath solution (140 mM NaCl, 5 mM KCl, 2 mM CaCl2, 1 mM MgCl2, 10 mM HEPES; adjusted to pH 7.4 with NaOH) containing 0.02% pluronic acid (Invitrogen, USA). […]
# trigeminal neurons = assay: Whole-cell voltage-clamp recording of cultured trigeminal neurons; assay type: cell-based, mouse; conditions: 1 mM acetaldehyde, n=6
# Procedure: Trigeminal ganglia were dissected out of decapitated adult ICR mice in cold PBS and treated with 1.5 mg/Ml of collagenase/dispase (Roche Diagnostics, USA) at 37 °C for 45 min, and then treated with 0.25% trypsin (Invitrogen, USA) for 15 min. The trigeminal neurons prepared thereby were then plated onto poly-L-lysine-coated coverslips in DMEM/F12 containing 10% FBS, 1% penicillin/streptomycin and 5 ng/Ml of 2.5S NGF (Invitrogen, USA), nerve growth factor (Invitrogen), followed by culture in a CO2 incubator for 48-72 hours.
# Particularly, the extracellular solution (140 mM NaCl, 5 mM KCl, 2 mM CaCl2, 1 mM MgCl2, 10 mM HEPES; titrated to pH 7.4 with NaOH) and the pipette solution (140 mM CsCl, 5 mM EGTA, 10 mM HEPES, 2.0 mM MgATP, 0.2 mM NaGTP; titrated to pH 7.2 with CsOH) were used. The potential was holded at −60 mV for 250 ms, voltage-ramp pulsed from −80 mV to +80 mV for […] and returned to −60 mV for 250 ms, which was repeated without intersweep. This experiment was repeated 5 times.
# The trigeminal neurons prepared by the same manner as described in Example 2 were delayed-treated with 1 mM acetaldehyde, followed by treatment of 20 μM GdCl3 (a TRPA1 blocker gadolinium; Sigma-Aldrich, USA) and 2 mM camphor. Then, whole-cell voltage-clamp recording was performed by the same manner as described in Example <5-2>.
# [1] = acetaldehyde 1 to 10^4 μM, Fluo-3 calcium imaging
compound,measurement,setting,value
CC=O [acetaldehyde],EC50,hTRPA1,76.5 µM
same,elevation of intracellular calcium levels in hTRPA1-expressing cells,"hTRPA1; 1 mM acetaldehyde, 300 μM cinnamaldehyde, 10 mM acetic acid, 1% methanol, 1% ethanol",TRPA1-specific responses; also recorded: responded
same,n of dose-response curve (Hill plot) on hTRPA1,hTRPA1; [1],2.4
same,EC50,mTRPA1,1190 µM
same,n of dose-response curve (Hill plot) on mTRPA1,mTRPA1; [1],3.1
same,maximum efficacy in mTRPA1 responses compared with hTRPA1,"mTRPA1; dose-response, calcium imaging",greater maximum efficacy
same,whole-cell current response in TRPA1 expressing cells,TRPA1,pronounced outwardly rectifying current occurred
same,activation of TRPV1 by acetaldehyde,TRPV1,only TRPA1 was activated
same,current increase in trigeminal neurons,trigeminal neurons,increased current
